The record followed here is PMC10517971, “An inverse agonist of orphan receptor GPR61 acts by a G protein-competitive allosteric mechanism” (Nature Communications, 2023).

SMILES strings stand for the structures. Where “and” joins values, the source holds several entries; their conditions need not be identical. Identical values can stand only once. Like-named read-outs stand apart in the source and are kept apart here.

Broadly, the IC50 is the midpoint of a concentration-inhibition curve.

Experiment [1] deals with T1, human GPR61 N137A (Homo sapiens, UniProt Q9BZJ8, N137A).
T1 construct: expressed in transfected cells; host or cells: CHO-K1, transient (Fugene6)
The experiment can be described thus: Functional cAMP assay (HTRF), transiently transfected CHO-K1 cells, GPR61 N137A mutant. The format is cell-based. Also noted: key to cAMP response (Figure 3e source data): nM cAMP per well, from standard curve. The following applies: for IC50: Fig. 3e table. An excerpt:
The human GPR61 (reference sequence NM_031936.4) cDNA was synthesized and subcloned into pcDNA5/FRT/TO (Thermo Fisher, Pittsburgh, PA). The pcDNA5/FRT/TO/ human GPR61 plasmid was then transfected into the Flp-In™-CHO Cell Line (Thermo Fisher, Pittsburgh, PA) and a doxycycline-inducible clonal cell line was selected (CHO TREx hGPR61 WT). Sequences encoding untagged and HiBit/hemagglutinin (HA)-tagged versions of the wild-type human GPR61 were synthesized and cloned into pcDNA3.1. The HiBit ([…]) and HA ([…]) tags were sequentially included after the N-terminal initiator methionine. Four single amino acid substitutions (N137A, R140A, V288A, N345A) were then introduced in the untagged and tagged human GPR61 constructs using site-specific mutagenesis. The nucleotide sequences of all receptor constructs were confirmed by automated DNA sequencing.
Parental CHO-K1 cells were maintained at 37 °C in a humidified environment (5% CO2) and grown in Dulbecco’s Modified Eagle Medium (DMEM) F-12 media (Gibco, 11320033) supplemented with 10% FBS, 1% Glutamax (Gibco, 35050061) and 100units/ml penicillin and streptomycin (Gibco, 15140122. Cells were dissociated using a cell dissociation solution (Gibco, 13151-014), counted, and resuspended in complete culture media without antibiotics. Cells were then transiently transfected using Fugene6 (Promega) in a 384-well plate format (Corning, 3570). For each well, 7500 cells were transfected with 5 ng of receptor plasmid, 20 ng of carrier DNA (Promega, PAE4881) and 0.075 μl Fugene6 in a final volume of 25 μl. Fugene6 and DNA were separately diluted in Optimem media (Gibco, 31985070) (1.25 μl final volume each). Fugene6 and DNA solutions were then combined and incubated for 15 min at room temperature. The cell containing solution (22.5 μl) was then added and transfection reactions were mixed and transferred to the assay plate. Following 24 h incubation at 37 °C, wells were rinsed once and 25 μl of HiBit assay buffer (Phenol-red free DMEM F-12 media containing 2% FBS) was added per well. Surface and total receptor expression was measured separately by adding 25 μl per well of the extracellular (Promega, PRN2421) and lytic (Promega, PRN3040) assay solutions, respectively. Plates were incubated for 10 min at room temperature on a shaker and luciferase activity was measured using an EnVision plate reader (Perkin Elmer, Chicago, IL). Expression was normalized as percent of the wild-type receptor signal. Statistical comparisons of expression levels observed with WT versus GPR61 mutants were made by one-way analysis of variance with Dunnett’s post hoc test.
A homogeneous Time-Resolved Fluorescence (HTRF) assay (Perkin Elmer, Dynamic2 kit #) was used to assess receptor basal and inverse agonist activity at human GPR61, GPR62, and GPR101. For routine inverse agonist screening frozen CHO TREx human GPR61, GPR62 and GPR101 cells were used. Cells were thawed, resuspended in complete assay media (DMEM F-12, 10% HI FBS, 100 μg/mL Normocin, 700 μg/mL Hygromycin B and 15 μg/mL Blasticidin) containing 1ug/ml doxycycline, plated in white 384 well plates (Corning, 3570) at a density of 750 cells/well (25 μl/ well) and cultured at 37 °C in an incubator overnight. For studies assessing basal and inverse agonist activity at human GPR61 mutants, CHO-K1 cells were transiently transfected using Fugene6, plated in white 384 well plates (7500 cells/well) and grown overnight at 37 °C, as described for receptor expression studies. […]
On the technique in general: Changes in cAMP serve as a functional read-out for many G protein-coupled receptors.

Experiment [2] has as its target T2, human GPR61 N345A (Homo sapiens, UniProt Q9BZJ8, N345A).
T2 construct: expressed in transfected cells; host or cells: CHO-K1, transient (Fugene6)
The experiment is described as follows: Functional cAMP assay (HTRF), transiently transfected CHO-K1 cells, GPR61 N345A mutant. The format is cell-based. Particulars: at up to 10 μM concentration. An excerpt:
The human GPR61 (reference sequence NM_031936.4) cDNA was synthesized and subcloned into pcDNA5/FRT/TO (Thermo Fisher, Pittsburgh, PA). The pcDNA5/FRT/TO/ human GPR61 plasmid was then transfected into the Flp-In™-CHO Cell Line (Thermo Fisher, Pittsburgh, PA) and a doxycycline-inducible clonal cell line was selected (CHO TREx hGPR61 WT). Sequences encoding untagged and HiBit/hemagglutinin (HA)-tagged versions of the wild-type human GPR61 were synthesized and cloned into pcDNA3.1. The HiBit ([…]) and HA ([…]) tags were sequentially included after the N-terminal initiator methionine. […]
Parental CHO-K1 cells were maintained at 37 °C in a humidified environment (5% CO2) and grown in Dulbecco’s Modified Eagle Medium (DMEM) F-12 media (Gibco, 11320033) supplemented with 10% FBS, 1% Glutamax (Gibco, 35050061) and 100units/ml penicillin and streptomycin (Gibco, 15140122. Cells were dissociated using a cell dissociation solution (Gibco, 13151-014), counted, and resuspended in complete culture media without antibiotics. Cells were then transiently transfected using Fugene6 (Promega) in a 384-well plate format (Corning, 3570). For each well, 7500 cells were transfected with 5 ng of receptor plasmid, 20 ng of carrier DNA (Promega, PAE4881) and 0.075 μl Fugene6 in a final volume of 25 μl. […]

T1 sequence (Q9BZJ8 whole entry N137A): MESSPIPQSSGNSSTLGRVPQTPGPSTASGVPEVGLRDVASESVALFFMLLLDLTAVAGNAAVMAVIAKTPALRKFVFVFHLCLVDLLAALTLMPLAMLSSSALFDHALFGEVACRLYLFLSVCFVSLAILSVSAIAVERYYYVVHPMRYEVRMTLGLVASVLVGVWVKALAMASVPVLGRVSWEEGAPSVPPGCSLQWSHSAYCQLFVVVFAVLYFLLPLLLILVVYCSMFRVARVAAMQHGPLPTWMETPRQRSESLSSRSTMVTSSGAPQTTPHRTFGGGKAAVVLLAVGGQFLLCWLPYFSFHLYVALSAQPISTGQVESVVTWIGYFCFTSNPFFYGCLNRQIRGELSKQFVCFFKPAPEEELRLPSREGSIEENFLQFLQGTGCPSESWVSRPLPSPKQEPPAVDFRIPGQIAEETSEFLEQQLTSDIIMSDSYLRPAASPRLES
T2 sequence (Q9BZJ8 whole entry N345A): as the sequence (Q9BZJ8 whole entry N137A) above, with A137N, N345A counted along it

For the molecule `CCOc1cc(C)nc(N(CCOC)S(=O)(=O)c2ccc(NCc3c(F)cncc3F)nc2OC)n1` [Compound 1], the “reduction of potency relative to wild-type in the cAMP assay” value in experiment [1] (Asn137 to Ala mutation vs wild-type) is reported as “about 100 fold”. Moreover, the IC50 was determined as 3340 nM in experiment [1] (HiBit-tagged, read-out: GPR61 cAMP IC50 (95% CI), N137A HiBit-tagged) and 1730 nM in experiment [1] (untagged, read-out: GPR61 cAMP IC50 (95% CI), N137A Untagged). Besides, the “cAMP response (Figure 3e source data)” value in experiment [1] (HiBit N137A, concentration -6.5) is 4.93 and 5.62 and 3.82 and 3.87 and 6.18 and 6.86; in experiment [1] (HiBit N137A, concentration -7.5), 4.76 and 5.49 and 3.72 and 4.04 and 6.75 and 6.55; in experiment [1] (HiBit N137A, concentration -8) it was 6.63 and 6.17 and 3.76 and 4.15 and 6.97 and 7.08; in experiment [1] (HiBit N137A, concentration -9), 2.87 and 4.76 and 3.00 and 3.25 and 3.54; in experiment [1] (Untagged N137A, concentration -6), 4.52 and 4.56 and 3.59 and 3.47 and 5.45 and 5.98. Moreover, the “sensitivity of the receptor to the compound in the cAMP assay” value in experiment [2] is on record as “no sensitivity”.
